Source: patent US20220331458A1, “AGENTS FOR CLEAVING LABELS FROM BIOMOLECULES IN VIVO” (TAGWORKS PHARMACEUTICALS B.V., priority 2019, published 2022)
Marks after values point to notes of the source that are not given here.

System: radiolabeled mAb-conjugates
Test: In vitro Label release from radiolabeled mAb-TCO-chelate conjugates incubated with Cleaving Agents (SEC)
Settings: 37°C, 15-24 h; for release (%) without Cleaving Agent: no Cleaving Agent
Experimental: Briefly, mAb solutions in PBS (4 mg/mL final concentration) were added with 15-20 eq of the NHS-derivative (dissolved at 10 mg/mL in DMSO) and the pH was adjusted to 9 with 1M sodium carbonate. The reaction mixtures were incubated at rt in the dark for 2 h then the products were purified by dialysis (20 kDa MW cut-off membranes) in chelex-treated 0.25M NH4OAc pH 5.5.
After 15-24 h incubation the mixtures were analyzed by SEC and the amount of released Label was quantified from the radioactivity elution profile.

[1] = Label release from TCO derivative 1.8 on trastuzumab, ^111In, PBS
[2] = Label release from TCO derivative 1.14 on CC49, ^89Zr, PBS
[3] = Label release from TCO derivative 1.15 on CC49, ^89Zr, PBS
[4] = Label release from TCO derivative 1.17 on CC49, ^89Zr, PBS
[5] = Label release from TCO derivative 1.17 on trastuzumab, ^89Zr, PBS
[6] = Label release from TCO derivative 1.8 on trastuzumab, ^111In, 50% mouse plasma in PBS

Compound: NCc1ccc(-c2nncnn2)cc1 [Compound 2.16, reference compound]
- release (%) [1]: 64.5%

Compound: Oc1cnccc1-c1nnc(-c2ccncc2O)nn1 [Compound 2.2, 4,4′-(1,2,4,5-Tetrazine-3,6-diyl)bis(pyridin-3-ol)]
- release (%) [2]: 60.3%
- release (%) [3]: 65.8%
- release (%) [4]: 87.2%
- release (%) [5]: 61.4%
- release (%) (Label release from TCO derivative 1.4 on trastuzumab, ^111In, PBS): 69.5%
- release (%) [1]: 81.6%

Compound: CC(=O)N(O)CCCCCNC(=O)CCC(=O)N(O)CCCCCNC(=O)CCC(=O)N(O)CCCCCNC(=O)CN(C)C(=O)O[C@@H]1/C=C/CC[C@](C)(C(=O)ON2C(=O)CCC2=O)CC1 [Compound 1.15, NHS-TCO-Sar-DFO]
- release (%) without Cleaving Agent (TCO derivative conjugated to CC49, ^89Zr, PBS): 7.3%

Compound: CC(=O)Nc1cccnc1-c1nnc(-c2ncccc2NC(C)=O)nn1 [Compound 2.4, N,N′-(2,2′-(1,2,4,5-Tetrazine-3,6-diyl)bis(pyridine-3,2-diyl))diacetamide]
- release (%) [6]: 54.5^a %

Compound: CC(=O)N[C@H]1C(OCCOCCOCCn2cc(COCCC(=O)NCCCCC(NC(=O)CCOCc3cn(CCOCCOCCOC4O[C@H](CO)[C@H](O)[C@H](O)[C@H]4NC(C)=O)nn3)C(=O)NCc3ccc(-c4nncnn4)cc3)nn2)O[C@H](CO)[C@H](O)[C@@H]1O (stereo partly drawn) [Compound 2.11, Tetrazine-bis-GalNAc]
- release (%) [1]: 67.2%

Compound: CN(CC(=O)NCCOCCOCCOCCOCCNC(=O)CCC(C(=O)O)N1CCN(CC(=O)O)CCN(CC(=O)O)CCN(CC(=O)O)CC1)C(=O)O[C@@H]1/C=C/CC[C@](C)(C(=O)NCCOCCOCCOCCOCCOCCOCCOCCOCCOCCNC(=O)CCN2C(=O)C=CC2=O)CC1 (stereo partly drawn) [Compound 1.8, Mal-PEG9-TCO-Sar-PEG4-DOTAGA]
- release (%) without Cleaving Agent (TCO derivative conjugated to trastuzumab, ^111In, 50% mouse plasma in PBS): 6.6%
- release (%) without Cleaving Agent (TCO derivative conjugated to trastuzumab, ^111In, PBS): 5.8%

Compound: Cc1nnc(C)nn1 [Compound 2.13, reference compound]
- release (%) [2]: 53.6%
- release (%) [3]: 66.3%
- release (%) [4]: 72.3%
- release (%) [5]: 84.4%
- release (%) (Label release from TCO derivative 1.4 on trastuzumab, ^111In, 50% mouse plasma in PBS): 62.9^a %
- release (%) (Label release from TCO derivative 1.4 on trastuzumab, ^177Lu, PBS): 69.5%
- release (%) [1]: 71.4%
- release (%) (Label release from TCO derivative 1.8 on trastuzumab, ^177Lu, PBS): 88.9%

Compound: O=C(O)CCCC(=O)Nc1cnccc1-c1nnc(-c2ccncc2NC(=O)CCCC(=O)O)nn1 [Compound 2.9, 5,5′-((4,4′-(1,2,4,5-Tetrazine-3,6-diyl)bis(pyridine-4,3-diyl))bis(azanediyl))bis(5-oxopentanoic acid)]
- release (%) [6]: 67.0^a %

Compound: Cc1nnc(-c2ncccn2)nn1 [Compound 2.19, reference compound]
- release (%) [1]: 69.1%

Compound: Cc1nnc(-c2nccc(CNC(=O)CCCC(=O)NC(CO)CO)n2)nn1 [Compound 2.20]
- release (%) [1]: 67.2%

Compound: c1ccc(-c2nnc(-c3ccccn3)nn2)nc1 [Compound 2.14, reference compound]
- release (%) [1]: 51.5%
